Experimental data as given in US8394376B2, “Therapeutic agents for alzheimer's disease and cancer” (The University of Tokyo, priority 2006, dated 2013).

How the values were obtained:
HEK/NΔEGV cells = assay: GAL4-UAS luciferase reporter assay in living cells; type: cell-based; settings: final concentration 10 μM
Excerpt: GAL4/VP16 was bound to NΔE (including N99), in which deletion occurs in the extracellular domain of Notch receptor and which serves as a direct substrate for γ-secretase in a ligand-independent manner, to thereby prepare a construct (NΔEGV, Taniguchi Y., Karlstrom K., Lundkvist J., Mizutani T., Otaka A., Vestling M., Bernstein A., Donoviel D., Lendahl U., Honjo T.: Notch receptor cleavage depends on but is not directly executed by presenilins. Proc. Natl. Acad. Sci. U.S.A 2002, 99: 4014). The construct (NΔEGV) was subcloned into pcDNA3.1 vector (pcDNA3.1-NΔEGV). […]
(§1) HEK/SC100G cells or HEK/NΔEGV cells were inoculated into a 48-well multiplate (2.5×10^4 cells). […] After culturing for 12 hours, cells and a culture supernatant were recovered, and the amount of Aβ was determined through a reporter assay or ELISA.
(§2) The recovered cells were lysed in a lysis buffer (Promega), and the resultant lysate was subjected to the reporter assay. […] The amount of luciferase luminescence was normalized by the concentration of protein (in the case of HEK/SC100G cells), or by the amount of eGFP luminescence (in the case of HEK/NΔEGV cells), to thereby yield relative light unit (RLU). […]

HeLa cells = assay: Cell viability by the MTT method; type: cell-based, human; settings: final concentration 100 μM, 72 hours, vs untreated, FIG. 12
Description: (§3) HeLa cells or A549 cells (5×10^3 cells) were inoculated onto a 96-well multiplate and treated with DAPT (final concentration: 100 μM) for 72 hours. After the 72-hour treatment, MTT diluted with PBS was added to the plate so that the final MTT concentration was 500 μg/mL, followed by culturing at 37° C. for three to four hours. Thereafter, stop solution (10% SDS, 0.01 M HCl) was added to the plate for termination of reaction, and the plate was allowed to stand still at 37° C. overnight, followed by dissolution of produced formazan. The formazan solution was uniformly mixed through pipetting, and absorbance was measured at 550 nm, to thereby calculate cell viability. […] Subsequently, in order to confirm that this reduction in cell viability was attributed to inhibition of γ-secretase activity, endogenous nicastrin of A549 cells was knocked down through treatment with nicastrin-corresponding short interference RNA (siRNA), and change in cell viability was determined. As a result, in the case of treatment with nicastrin siRNA, cell viability was reduced by about 20%, as compared with the case of treatment with siRNA having a random sequence (scramble) (FIG. 13).

A549 cells = assay: Cell viability by the MTT method; type: cell-based, human; settings: final concentration 100 μM, 72 hours, vs untreated, FIG. 12
Description: as §3, with “As a result, in the case of treatment with nicastrin siRNA, cell viability was reduced by about 20%, as compared with the case of treatment with siRNA having a random sequence (scramble) (FIG. 13).” left out
Subsequently, the effect of the above-prepared antibodies on survival of A549 cells was examined. Each of the antibodies was added to A549 cells so that the final antibody concentration was 10 μg/mL, and, 96 hours after addition of the antibody, cell viability was determined through the MTT method.

HEK/SC100G cells = assay: GAL4-UAS luciferase reporter assay in living cells; type: cell-based; settings: final concentration 10 μM
Excerpt: A preproenkephalin-derived signal peptide was inserted into C99, and GAL4 (i.e., a yeast-derived transcription factor) was inserted immediately downstream of the transmembrance domain of C99, to thereby prepare a construct (SC100G). The construct (SC100G) was subcloned into pcDNA3.1/Hygro vector (Invitroger).
A UAS sequence was inserted upstream of luciferase in pGL3(R2.2) vector (Promega), to thereby prepare a construct (UAS-luc), and the construct was employed as a reporter construct. eGFP was subcloned into pcDNA3 (Invitrogen), and the thus-prepared pcDNA3-eGFP was employed as a control vector for monitoring the number of cells. […]
as §1, §2

`C[C@H](NC(=O)Cc1cc(F)cc(F)c1)C(=O)N[C@H](C(=O)OC(C)(C)C)c1ccccc1` [DAPT] was tested, and the reporter activity (HEK/NΔEGV cells) was “inhibit reporter activity”, the cell viability (HeLa cells) was “no significant difference” and the cell viability (A549 cells) was “significantly lower”. The reporter activity (HEK/SC100G cells) was “inhibit reporter activity”.
